Activity calls are given as the source filed them. The calls are words filed in the database; no cut-off is given here.
Experiments:
[1] = molecular target: Amyloid-beta precursor protein (Homo sapiens) (UniProt P05067); test: Inhibition of HFIP-induced amyloid beta (1 to 42 residues) (unknown origin) aggregation at 1:1 protein to compound ratio preincubated for 15 mins followed by HFIP addition measured after 40 mins by silver staining-based native PAGE assay
[2] = molecular target: Amyloid-beta precursor protein (Homo sapiens) (UniProt P05067); test: Inhibition of HFIP-induced amyloid beta (1 to 42 residues) (unknown origin) aggregation at 1:1 protein to compound ratio preincubated for 15 mins followed by HFIP addition measured after 40 mins by turbidity assay relative to control
[3] = Neuroprotective activity against amyloid beta (1 to 42 residues)-induced toxicity in human SH-SY5Y cells assessed as cell viability at 5 to 20 uM after 3 days by MTT assay (reference value: 28%); type: functional
[4] = molecular target: Amyloid-beta precursor protein (Homo sapiens) (UniProt P05067); test: Inhibition of HFIP-induced amyloid beta (1 to 42 residues) (unknown origin) aggregation assessed as decrease in levels of higher aggregates at 1:1 protein to compound ratio preincubated for 15 mins followed by HFIP addition measured after 40 mins by silver staining-based native PAGE assay
[5] = molecular target: Amyloid-beta precursor protein (Homo sapiens) (UniProt P05067); test: Inhibition of HFIP-induced amyloid beta (1 to 42 residues) (unknown origin) aggregation at 1:0.75 protein to compound ratio preincubated for 15 mins followed by HFIP addition measured after 40 mins by ThT fluorescence assay
[6] = molecular target: Amyloid-beta precursor protein (Homo sapiens) (UniProt P05067); test: Inhibition of HFIP-induced amyloid beta (1 to 42 residues) (unknown origin) aggregation at 1:1 protein to compound ratio preincubated for 15 mins followed by HFIP addition measured after 40 mins by ThT fluorescence assay relative to control
[7] = molecular target: Amyloid-beta precursor protein (Homo sapiens) (UniProt P05067); test: Inhibition of HFIP-induced amyloid beta (1 to 42 residues) (unknown origin) aggregation at 1:0.25 protein to compound ratio preincubated for 15 mins followed by HFIP addition measured after 40 mins by ThT fluorescence assay relative to control
[8] = molecular target: Amyloid-beta precursor protein (Homo sapiens) (UniProt P05067); test: Inhibition of HFIP-induced amyloid beta (1 to 42 residues) (unknown origin) aggregation at 1:1 protein to compound ratio preincubated for 15 mins followed by HFIP addition measured after 40 mins by ANS extrinsic fluorescence assay relative to control
[9] = Cytotoxicity against human SH-SY5Y cells assessed as decrease in cell viability after 24 hrs by MTT assay; type: toxicity, cell-based
[10] = molecular target: Amyloid-beta precursor protein (Homo sapiens) (UniProt P05067); test: Inhibition of HFIP-induced amyloid beta (1 to 42 residues) (unknown origin) aggregation at 1:0.5 protein to compound ratio preincubated for 15 mins followed by HFIP addition measured after 40 mins by ThT fluorescence assay

Sequence of Amyloid-beta precursor protein (Homo sapiens) (P05067 whole entry, the tested form may be a part): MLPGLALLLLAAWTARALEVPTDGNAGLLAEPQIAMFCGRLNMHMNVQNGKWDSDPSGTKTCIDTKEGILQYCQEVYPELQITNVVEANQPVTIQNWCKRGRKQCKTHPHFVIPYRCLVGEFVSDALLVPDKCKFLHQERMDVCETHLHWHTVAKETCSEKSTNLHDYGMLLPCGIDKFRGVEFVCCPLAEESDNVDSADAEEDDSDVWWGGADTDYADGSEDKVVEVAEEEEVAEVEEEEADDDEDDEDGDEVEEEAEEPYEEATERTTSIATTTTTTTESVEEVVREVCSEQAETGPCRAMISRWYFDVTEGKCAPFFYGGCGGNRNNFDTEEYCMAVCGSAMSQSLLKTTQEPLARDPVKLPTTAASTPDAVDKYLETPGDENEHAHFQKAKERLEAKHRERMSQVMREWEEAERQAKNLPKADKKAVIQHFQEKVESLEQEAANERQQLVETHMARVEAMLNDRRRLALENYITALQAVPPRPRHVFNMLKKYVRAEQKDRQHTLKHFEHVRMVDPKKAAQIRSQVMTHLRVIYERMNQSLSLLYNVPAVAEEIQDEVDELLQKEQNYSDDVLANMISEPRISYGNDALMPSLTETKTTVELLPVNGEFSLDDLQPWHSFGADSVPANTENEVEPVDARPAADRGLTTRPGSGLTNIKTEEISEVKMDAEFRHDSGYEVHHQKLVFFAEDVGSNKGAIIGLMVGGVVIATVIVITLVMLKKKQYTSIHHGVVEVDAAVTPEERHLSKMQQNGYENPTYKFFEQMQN

| Compound | inhibition [1] | inhibition [2] [%] | Activity [3] [%] | inhibition [4] | inhibition [5] | inhibition [6] [%] | inhibition [7] [%] | inhibition [8] [%] | IC50 ([9]; sh-sy5y) [µM] | inhibition [10] | IC50 at 24 h ([9]; human, SH-SY5Y cells) [µM] |
| --- | --- | --- | --- | --- | --- | --- | --- | --- | --- | --- | --- |
| Oc1c(I)cc(Cl)c2cccnc12 | Active |  |  |  |  |  |  |  |  |  |  |
| C/C(=N\NC(N)=S)c1cc2ccccc2oc1=O | Active | 78 | 95 | Active | Active | 80 | 53 | 86 | ≤ 185 | Active |  |
| CC(=O)c1cc2ccccc2oc1=O [3-ACETYLCOUMARIN] | Active | 59 | 77 | Active | Active | 50 | 40 | 40 |  | Active | 75 |
